# Assay results from US20210246144A1, “A SET OF MITOCHONDRIA-TARGETED COMPOUNDS” (MITOTECH S.A., priority 2017, published 2021).
# Columns and labels:
# [1] = system: mitochondrial membrane potential; assay: mitochondrial uncoupling (protonophore), decrease of mitochondrial membrane potential; details: causes decrease in mitochondrial membrane potential and reduction of ROS production by mitochondria
# [2] = relative to the antioxidant concentrations; cited from earlier work
# [3] = system: isolated mitochondria or live cultures of human cells; details: cited from earlier work
# isolated mitochondria = details: cited from earlier work
# [4] = neuroprotective and nephroprotective properties
# Procedure: (§1) Dibromoalkanes (60, 61) were heated with (triphenyl)phosphine in benzene at 80° C., and the obtained bromoalkyl(triphenyl)phosphonium bromides (62, 63) were reacted with fluorescein in the presence of sodium carbonate. As a result, bromides of {4-[2-(6-hydroxy-3-oxo-3H-xanthen-9-yl)benzoyloxy]butyl}(triphenyl)phosphonium (64) and {10-[2-(6-hydroxy-3-oxo-3H-xanthen-9-yl)benzoyloxy]decyl}(triphenyl)phosphonium (65).
# [5] = fluorescent uncoupler activity
# Procedure: as §1
compound,measurement,setting,value
"CCCCCCCCCCCCOC(=O)c1ccccc1-c1c2cc(C)/c(=N/CC)cc-2oc2cc(NCC)c(C)cc12 [Compound 29, dodecyl 2-[(3E)-6-(ethylamino)-3-(ethylimino)-2,7-dimethyl-3H-xanthen-9-yl]benzoate]",mitochondrial uncoupling (protonophore) activity,[1],soft cationic mitochondrial uncouplers (protonophores)
"COc1ccc2c(CC(=O)OCCCCCCCCCC3=CC(=O)C(C)=C(C)C3=O)c3[n+](cc2c1OC)CCc1cc2c(cc1-3)OCO2 [SkQBerb, 21-(2-{[9-(4,5-dimethyl-3,6-dioxocyclohexa-1,4-dien-1-yl)nonyl]oxy}-2-oxoethyl)-16,17-dimethoxy-5,7-dioxa-13λ^5-azapentacyclo[11.8.0.0^21.0.0^4.8.0^15.20]henicosa-1(21),2,4(8),9,13,15(20),16,18-octaen-13-ylium]",prooxidant effect,[2],manifested at significantly higher concentrations
same,accumulation in isolated mitochondria or live human cells,[3],accumulate in isolated mitochondria or live cultures of human cells
same,inhibition of lipid peroxidation,isolated mitochondria,inhibit lipid peroxidation in isolated mitochondria in nanomolar concentrations
{10-[2-(6-hydroxy-3-oxo-3H-xanthen-9-yl)benzoyloxy]decyl}(triphenyl)phosphonium [Compound 65],neuroprotective and nephroprotective properties,[4],neuroprotective and nephroprotective properties
same,uncoupler activity,[5],fluorescent uncouplers
{4-[2-(6-hydroxy-3-oxo-3H-xanthen-9-yl)benzoyloxy]butyl}(triphenyl)phosphonium [Compound 64],neuroprotective and nephroprotective properties,[4],neuroprotective and nephroprotective properties
same,uncoupler activity,[5],fluorescent uncouplers
"CCCCCCCCCCOC(=O)c1ccccc1-c1c2cc(C)/c(=N/CC)cc-2oc2cc(NCC)c(C)cc12 [Compound 28, decyl 2-[(3E)-6-(ethylamino)-3-(ethylimino)-2,7-dimethyl-3H-xanthen-9-yl]benzoate]",mitochondrial uncoupling (protonophore) activity,[1],soft cationic mitochondrial uncouplers (protonophores)
"COc1cc2c(cc1OC)-c1c(CC(=O)OCCCCCCCCCC3=CC(=O)C(C)=C(C)C3=O)c3ccc(OC)c(OC)c3c[n+]1CC2 [SkQPalm, 13-(2-{[9-(4,5-dimethyl-3,6-dioxocyclohexa-1,4-dien-1-yl)nonyl]oxy}-2-oxoethyl)-3,4,10,11-tetramethoxy-7,8-dihydro-6λ^5-azatetraphen-6-ylium]",prooxidant effect,[2],manifested at significantly higher concentrations
same,accumulation in isolated mitochondria or live human cells,[3],accumulate in isolated mitochondria or live cultures of human cells
same,inhibition of lipid peroxidation,isolated mitochondria,inhibit lipid peroxidation in isolated mitochondria in nanomolar concentrations
CC/N=c1/cc2oc3cc(NCC)c(C)cc3c(-c3ccccc3C(=O)OCCCCCCCCCCC3=CC(=O)C(C)=C(C)C3=O)c-2cc1C.Cl [SkQR1],mitochondrial uncoupling (protonophore) activity,[1],soft cationic mitochondrial uncouplers (protonophores)
